Assay results reported in patent publication US20260345641A1, “COMPOSITIONS AND USES THEREOF” (Algorae Pharmaceuticals Ltd, priority 2023, published 2026).

Test system: SH-SY5Y cells
Assay: Gene expression analysis by RNA sequencing in the presence of Aβ
Assay type: cell-based, human
Settings: 5 μM, with Aβ
Text: The SH-S5Y5 neuroblastoma cell line was used for pre-clinical analysis. The SH-S5Y5 cell line is commonly used as a model for neurodegenerative disorders as the cells can be converted to various types of functional neurons by the addition of specific compounds (see, e.g., Xicoy et al., 2017, Molecular Neurodegeneration, 12: 10). In addition, the SH-S5Y5 cell line has been used widely in experimental neurological studies, including analysis of neuronal differentiation, metabolism, and function related to neurodegenerative processes, neurotoxicity and neuroprotection (see, e.g., Datki et al., 2003, Brain Research Bulletin, 62(3): 22-229; and Xie et al., 2010, Chinese Medical Journal, 123(8): 1086-1092).
Total RNA was isolated from cells using TRIzol in accordance with the manufacturer's instructions (Invitrogen, Carlsbad, CA, USA). RNA concentration and quality was assessed using a NanoDrop spectrophotometer. Only samples with a 260/280 ratio of ≥1.8 were used for further analysis.
Messenger RNA (mRNA) was purified from total RNA using poly-T oligo attached magnetic beads. After fragmentation, cDNA synthesis was performed in accordance with the manufacturer's instructions (Illumina, San Diego, CA, USA) to generate a directional and non-directional library. Libraries were checked with Qubit, real-time PCR was performed for quantification, and size distribution detection was performed using the Bioanalyzer. Quantified libraries were pooled and sequenced on an Illumina platform, according to the manufacturer's instructions.
Raw reads were filtered and mapped to human reference genome (GRCh38/hg38) using HISAT2. Differential gene expression analysis was performed using R Package DEG seq2. […] Manual annotation of genes previously associated with specific neurodegenerative disorders and dementias was performed following a text mining analysis.

SMILES: COc1cc2c(cc1OC)C(=O)C(CC1CCN(Cc3ccccc3)CC1)C2 (stereo not shown) [Donepezil]
- ATP13A2 gene expression (control 7.789, P 0.022): 5.931
- TUBB4A gene expression (control 7.889, P 0.013): 12.522
- C19orf12 gene expression (control 8.149, P 0.002): 8.062
- COMT gene expression (control 8.395, P 0.009): 7.242
- CLCN6 gene expression (control 8.460, P 0.007): 9.489
- SLC2A1 gene expression (control 8.472, P 0.018): 9.539
- KIF5A gene expression (control 8.491, P 0.023): 7.978
- MT-TE gene expression (control 8.733, P 0.049): 14.784
- ASTN2 gene expression (control 8.739, P 0.008): 10.467
- GAP43 gene expression (control 8.840, P 0.016): 14.884
- HTRA1 gene expression (control 8.986, P 0.035): 3.452
- GPT2 gene expression (control 9.062, P 0.018): 9.323
- RELN gene expression (control 9.086, P 0.007): 8.830
- MAP2 gene expression (control 9.232, P 0.018): 13.284
- FAR1 gene expression (control 9.502, P 0.001): 9.330
- ULK1 gene expression (control 9.616, P 0.008): 7.435
- MT-TR gene expression (control 9.625, P 0.053): 7.395
- AUH gene expression (control 9.982, P 0.001): 9.689
- UBQLN2 gene expression (control 10.132, P 0.055): 10.681
- TP53 gene expression (control 10.247, P 0.010): 10.184
- RNF216 gene expression (control 10.517, P 0.005): 11.360
- LMNB1 gene expression (control 10.575, P 0.020): 13.789
- SDHA gene expression (control 10.591, P 0.002): 10.690
- CTSF gene expression (control 10.619, P 0.034): 12.207
- PHIP gene expression (control 10.884, P 0.000): 10.131
- NEAT1 gene expression (control 10.972, P 0.010): 8.854
- GSR gene expression (control 10.993, P 0.009): 14.077
- NBEA gene expression (control 11.016, P 0.010): 12.180
- HEXB gene expression (control 11.029, P 0.010): 11.767
- NIPA1 gene expression (control 11.189, P 0.025): 10.862
- PDGFRA gene expression (control 11.237, P 0.009): 11.624
- SORT1 gene expression (control 11.268, P 0.004): 9.054
- DLAT gene expression (control 11.385, P 0.035): 10.390
- CTSA gene expression (control 11.863, P 0.001): 12.014
- AIFM1 gene expression (control 11.948, P 0.026): 10.769
- KIF4A gene expression (control 12.106, P 0.000): 12.317
- PIK3CA gene expression (control 12.209, P 0.057): 9.685
- MT-TM gene expression (control 12.408, P 0.006): 7.334
- PSEN1 gene expression (control 12.549, P 0.033): 10.463
- CST3 gene expression (control 12.563, P 0.049): 14.607
- PNKP gene expression (control 12.578, P 0.015): 13.753
- UBE4A gene expression (control 12.586, P 0.050): 11.589
- PANK2 gene expression (control 12.767, P 0.010): 5.414
- PINK1 gene expression (control 12.825, P 0.001): 9.640
- SERPINI1 gene expression (control 12.857, P 0.025): 12.924
- NEFL gene expression (control 13.063, P 0.010): 22.943
- TOMM40 gene expression (control 13.758, P 0.001): 15.441
- PMPCA gene expression (control 13.790, P 0.022): 11.969
- PRKAR1B gene expression (control 13.838, P 0.000): 14.889
- NGF gene expression (control 14.274, P 0.012): 1.165
- EIF2B5 gene expression (control 14.483, P 0.017): 12.247
- NEFH gene expression (control 14.777, P 0.018): 13.335
- TBK1 gene expression (control 15.661, P 0.052): 12.891
- SPG21 gene expression (control 15.666, P 0.035): 17.306
- MIR103A2 gene expression (control 15.688, P 0.029): 9.508
- DNAJC5 gene expression (control 16.143, P 0.004): 18.101
- SDHAF1 gene expression (control 16.174, P 0.024): 17.490
- ALDH18A1 gene expression (control 16.206, P 0.012): 18.398
- BIRC6 gene expression (control 16.315, P 0.045): 14.545
- SMCR8 gene expression (control 16.386, P 0.025): 9.923
- SCARB2 gene expression (control 16.783, P 0.011): 20.762
- HCFC1 gene expression (control 17.149, P 0.014): 21.365
- MT-TV gene expression (control 17.283, P 0.000): 9.882
- KCTD7 gene expression (control 18.066, P 0.016): 14.737
- CDK1 gene expression (control 18.213, P 0.001): 31.665
- WDR45 gene expression (control 18.358, P 0.008): 10.730
- ATP6V1A gene expression (control 18.408, P 0.038): 16.105
- ATXN7L3B gene expression (control 19.279, P 0.006): 20.868
- MT-TY gene expression (control 19.436, P 0.034): 14.109
- DNAJB6 gene expression (control 19.482, P 0.010): 13.438
- MT-TN gene expression (control 19.578, P 0.001): 4.546
- DNMT1 gene expression (control 19.641, P 0.019): 19.982
- HRAS gene expression (control 19.713, P 0.000): 18.552
- SNHG1 gene expression (control 19.818, P 0.004): 17.384
- SYP gene expression (control 20.006, P 0.004): 15.060
- BACE1 gene expression (control 20.034, P 0.031): 16.945
- ACHE gene expression (control 20.557, P 0.010): 15.012
- SMARCC1 gene expression (control 21.060, P 0.050): 23.108
- CPT1C gene expression (control 21.622, P 0.000): 23.209
- SETD1A gene expression (control 22.012, P 0.020): 11.489
- LRP10 gene expression (control 23.073, P 0.013): 19.237
- DIAPH1 gene expression (control 23.288, P 0.016): 23.289
- NDUFS4 gene expression (control 23.590, P 0.040): 31.457
- TIA1 gene expression (control 24.343, P 0.029): 18.552
- SORCS1 gene expression (control 24.655, P 0.014): 27.879
- MADD gene expression (control 24.804, P 0.015): 17.028
- MAP1B gene expression (control 25.187, P 0.004): 31.197
- PNPLA6 gene expression (control 25.949, P 0.007): 14.472
- HTRA2 gene expression (control 26.112, P 0.003): 24.427
- FUS gene expression (control 26.563, P 0.006): 23.115
- CHRNA3 gene expression (control 26.776, P 0.015): 35.011
- STARD7 gene expression (control 27.791, P 0.022): 25.690
- RGS4 gene expression (control 28.376, P 0.019): 23.445
- RRM2B gene expression (control 28.427, P 0.027): 15.106
- OTUD5 gene expression (control 29.629, P 0.024): 29.255
- MMADHC gene expression (control 29.814, P 0.009): 28.376
- PHF1 gene expression (control 31.064, P 0.022): 22.592
- XPR1 gene expression (control 31.247, P 0.010): 53.075
- TFG gene expression (control 31.479, P 0.015): 30.210
- DEGS1 gene expression (control 32.375, P 0.003): 28.878
- SQSTM1 gene expression (control 32.378, P 0.007): 38.955
- TCF4 gene expression (control 32.383, P 0.017): 36.707
- PDGFRB gene expression (control 32.930, P 0.001): 20.075
- UNC5C gene expression (control 33.422, P 0.001): 34.253
- COL3A1 gene expression (control 34.958, P 0.008): 29.884
- MT-TQ gene expression (control 37.146, P 0.001): 28.576
- NID1 gene expression (control 38.202, P 0.008): 51.536
- COASY gene expression (control 38.304, P 0.003): 24.487
- TMEM230 gene expression (control 40.014, P 0.054): 35.809
- GRN gene expression (control 43.913, P 0.009): 38.715
- SOD1 gene expression (control 44.413, P 0.023): 54.134
- HNRNPDL gene expression (control 44.506, P 0.001): 58.385
- EIF4G1 gene expression (control 46.194, P 0.005): 47.437
- VCP gene expression (control 49.074, P 0.025): 49.391
- ATP6V1E1 gene expression (control 51.257, P 0.048): 41.488
- GBA2 gene expression (control 53.427, P 0.010): 42.069
- PARK7 gene expression (control 54.907, P 0.006): 62.824
- EEF1A2 gene expression (control 63.840, P 0.016): 77.336
- MT-TP gene expression (control 74.063, P 0.023): 57.524
- U2AF2 gene expression (control 88.738, P 0.014): 53.895
- MT-TS1 gene expression (control 108.757, P 0.004): 75.947
- PRDX1 gene expression (control 137.725, P 0.007): 123.771
- HNRNPA1 gene expression (control 180.363, P 0.003): 274.269
- GNAS gene expression (control 193.754, P 0.003): 202.087
- MT-ND6 gene expression (control 281.366, P 0.001): 64.249
- APP gene expression (control 293.865, P 0.033): 159.632
- PFN1 gene expression (control 386.845, P 0.010): 384.213
- MT-ATP8 gene expression (control 388.214, P 0.017): 298.175
- FTL gene expression (control 423.318, P 0.015): 514.018
- MT-ND5 gene expression (control 1304.948, P 0.012): 1379.984
- MT-ND1 gene expression (control 2654.440, P 0.010): 2177.390
- MT-ND2 gene expression (control 2855.888, P 0.019): 2011.949
- MT-CYB gene expression (control 4523.043, P 0.003): 4140.601
- MT-CO3 gene expression (control 6360.482, P 0.003): 6139.890
- MT-ATP6 gene expression (control 6754.328, P 0.009): 5525.655
- COL4A1 gene expression (first listing, control 3.205, P 0.014): 6.341
- APBB2 gene expression (first listing, control 7.376, P 0.015): 5.038
- MTR gene expression (first listing, control 7.739, P 0.018): 9.723
- DNAJC6 gene expression (first listing, control 11.205, P 0.017): 14.537
- TWNK gene expression (first listing, control 25.053, P 0.010): 15.384
- COL4A1 gene expression (second listing, control 3.206, P 0.014): 4.649
- APBB2 gene expression (second listing, control 7.118, P 0.015): 6.231
- MTR gene expression (second listing, control 8.443, P 0.018): 8.954
- DNAJC6 gene expression (second listing, control 12.142, P 0.017): 12.821
- TWNK gene expression (second listing, control 22.506, P 0.010): 19.867
